For one assay, the target named is JAK1 (Homo sapiens (Human), UniProt P23458). In words: Jak Biochemical HTRF Assay, JAK1. Conditions: HTRF biochemical assay, GST-tagged catalytic domain; top concentration tested […]; read-out: JAK1 IC50. An excerpt: (§1) Jak Biochemical HTRF Assay Protocol
(§2) Subsequent reagent additions employed an Agilent Bravo.
Background: TR-FRET usually uses a lanthanide donor and a delayed reading to cut background.

For the next assay, the target named is JAK2 (Homo sapiens (Human), UniProt O60674). Briefly: Jak Biochemical HTRF Assay, JAK2. Conditions: HTRF biochemical assay, GST-tagged catalytic domain; top concentration tested […].
Sequence of JAK2 (O60674 849-1124): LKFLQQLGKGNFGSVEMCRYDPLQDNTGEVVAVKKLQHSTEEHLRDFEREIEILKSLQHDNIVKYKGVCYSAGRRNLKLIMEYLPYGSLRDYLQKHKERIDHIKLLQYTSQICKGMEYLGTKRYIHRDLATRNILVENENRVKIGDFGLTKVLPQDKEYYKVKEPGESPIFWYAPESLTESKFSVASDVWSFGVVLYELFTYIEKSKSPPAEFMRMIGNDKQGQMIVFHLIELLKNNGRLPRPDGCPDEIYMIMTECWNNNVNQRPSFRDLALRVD
From the text: as §1, §2

Molecules are shown by their SMILES.

Sequence of JAK1 (P23458 875-1153): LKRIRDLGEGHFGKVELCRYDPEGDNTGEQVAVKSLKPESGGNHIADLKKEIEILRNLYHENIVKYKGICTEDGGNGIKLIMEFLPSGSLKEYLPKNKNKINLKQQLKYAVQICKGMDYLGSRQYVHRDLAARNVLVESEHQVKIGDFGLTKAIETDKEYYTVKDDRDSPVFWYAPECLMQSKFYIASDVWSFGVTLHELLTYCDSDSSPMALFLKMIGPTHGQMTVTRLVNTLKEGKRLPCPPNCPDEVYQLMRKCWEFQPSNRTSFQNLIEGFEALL

As to `Cc1cc(CN2CCC(CC#N)(n3cc(C(N)=O)c(Nc4ccnc(F)c4)n3)CC2)no1` [Example 22-27, 1-{4-(cyanomethyl)-1-[(5-methylisoxazol-3-yl)methyl]piperidin-4-yl}-3-[(2-fluoropyridin-4-yl)amino]-1H-pyrazole-4-carboxamide], the IC50 at JAK1 stood at 6 nM; at JAK2, 157 nM.
For `N#CCC1(n2cc(C(N)=O)c(Nc3ccc(F)cc3)n2)CCN(CC2CCCCC2)CC1` [Example 22-6, 1-[4-(cyanomethyl)-1-(cyclohexylmethyl)piperidin-4-yl]-3-[(4-fluorophenyl)amino]-1H-pyrazole-4-carboxamide], in that order: 6 nM and 211 nM.
For `N#CCC1(n2cc(C(N)=O)c(Nc3ccnc(F)c3)n2)CCC(NCc2ccccn2)CC1` (stereo not drawn) [Example 41-17, Cis or trans 1-{1-(cyanomethyl)-4-[(pyridin-2-ylmethyl)amino]cyclohexyl}-3-[(2-fluoropyridin-4-yl)amino]-1H-pyrazole-4-carboxamide], in that order: 46 nM and 1390 nM.
In the same order, the values of `N#CCC1(n2cc(C(N)=O)c(Nc3ccnc(F)c3)n2)CCC(Nc2ccccc2Cl)CC1` (stereo not drawn) [Example 40-11, Cis or trans 1-{4-[(2-chlorophenyl)amino]-1-(cyanomethyl)cyclohexyl}-3-[(2-fluoropyridin-4-yl)amino]-1H-pyrazole-4-carboxamide] are 0.2 nM and 7 nM.
As to `CCOc1ccc(N2CCC(CC#N)(n3cc(C(N)=O)c(Nc4ccc(F)cc4)n3)CC2)cn1` [Example 3-36, 1-[4-(cyanomethyl)-1-(6-ethoxypyridin-3-yl)piperidin-4-yl]-3-[(4-fluorophenyl)amino]-1H-pyrazole-4-carboxamide], the values for the IC50 on JAK1 and against JAK2 were 3 nM and 46 nM, respectively.
In the same order, the values of `N#CCC1(n2cc(C(N)=O)c(Nc3ccnc(F)c3)n2)CCN(Cc2ccnc3[nH]ccc23)CC1` [Example 22-18, 1-[4-(cyanomethyl)-1-(1H-pyrrolo[2,3-b]pyridin-4-ylmethyl)piperidin-4-yl]-3-[(2-fluoropyridin-4-yl)amino]-1H-pyrazole-4-carboxamide] are 2 nM and 72 nM.
`N#CCC1(n2cc(C(N)=O)c(Nc3ccc(F)cc3)n2)CCN(Cc2cnccn2)CC1` [Example 22-52, 1-[4-(cyanomethyl)-1-(pyrazin-2-ylmethyl)piperidin-4-yl]-3-[(4-fluorophenyl)amino]-1H-pyrazole-4-carboxamide]: the results for the IC50 on JAK1 and against JAK2 were 1 nM and 25 nM, respectively.
On to `N#CCC1(n2cc(C(N)=O)c(Nc3ccc(F)cc3)n2)CCC(N2CC(F)C2)CC1` (stereo not drawn) [Example 40-100, Cis or trans 1-[1-(cyanomethyl)-4-(3-fluoroazetidin-1-yl)cyclohexyl]-3-[(4-fluorophenyl)amino]-1H-pyrazole-4-carboxamide], for which the IC50 at JAK1 is 18 nM; at JAK2, 216 nM.
For `Cc1ccccc1NC(=O)N1CC(CC#N)(n2cc(C(N)=O)c(Nc3ccccc3)n2)C1` [Example 38-27, 1-{3-(cyanomethyl)-1-[(2-methylphenyl)carbamoyl]azetidin-3-yl}-3-(phenylamino)-1H-pyrazole-4-carboxamide], in that order: 11 nM and 162 nM.
For `CCn1ccnc1CN1CCC(CC#N)(n2cc(C(N)=O)c(Nc3ccnc(F)c3)n2)CC1` [Example 22-1, 1-(4-(Cyanomethyl)-1-((1-ethyl-1H-imidazol-2-yl)methyl)piperidin-4-yl)-3-((2-fluoropyridin-4-yl)amino)-1H-pyrazole-4-carboxamide], in that order: 30 nM and 447 nM.
On to `N#CCC1(n2cc(C(N)=O)c(Nc3ccc(F)cc3)n2)CCC(Nc2cccc(F)c2)CC1` (stereo not drawn) [Example 40-3, Cis or trans 1-{1-(cyanomethyl)-4-[(3-fluorophenyl)amino]cyclohexyl}-3-[(4-fluorophenyl)amino]-1H-pyrazole-4-carboxamide], for which the values for the IC50 at JAK1 and against JAK2 were 119 nM and greater than 1500 nM, respectively.
For `N#CCC(=O)N1CCC(CC#N)(n2cc(C(N)=O)c(Nc3ccnc(F)c3)n2)CC1` [Example 34-49, 1-[1-(cyanoacetyl)-4-(cyanomethyl)piperidin-4-yl]-3-[(2-fIuoropyridin-4-yl)amino]-1H-pyrazole-4-carboxamide], in that order: 0.2 nM and 9 nM.
For `C[C@@H]1C[C@](CC#N)(n2cc(C(N)=O)c(Nc3ccccc3)n2)CCN1C(=O)OC(C)(C)C` (racemic) [Example 2-11, tert-butyl (2R,4R and 2S,4S)-4-[4-carbamoyl-3-(phenylamino)-1H-pyrazol-1-yl]-4-(cyanomethyl)-2-methylpiperidine-1-carboxylate], in that order: 29 nM and 614 nM.
In the same order, the values of `N#CCC1(n2cc(C(N)=O)c(Nc3ccnc(F)c3)n2)CCN(Cc2nc3ccccc3[nH]2)CC1` [Example 22-41, 1-[1-(1H-benzimidazol-2-ylmethyl)-4-(cyanomethyl)piperidin-4-yl]-3-[(2-fluoropyridin-4-yl)amino]-1H-pyrazole-4-carboxamide] are 18 nM and 641 nM.
With `N#CCC1(n2cc(C(N)=O)c(Nc3ccc(F)cc3)n2)CCN(C(=O)OC2CCOCC2)CC1` [Example 30-47, tetrahydro-2H-pyran-4-yl 4-{4-carbamoyl-3-[(4-fluorophenyl)amino]-1H-pyrazol-1-yl}-4-(cyanomethyl)piperidine-1-carboxylate], the figures for the IC50 at JAK1 and against JAK2 were 3 nM and 103 nM, respectively.
With `N#CCC1(n2cc(C(N)=O)c(Nc3ccccc3)n2)CCN(Cc2c(F)ccc(F)c2F)CC1` [Example 21-26, 1-[4-(cyanomethyl)-1-(2,3,6-trifluorobenzyl)piperidin-4-yl]-3-(phenylamino)-1H-pyrazole-4-carboxamide], the figures for the IC50 at JAK1 and on JAK2 were 0.7 nM and 11 nM, respectively.
For `N#CCC1(n2cc(C(N)=O)c(Nc3ccccc3)n2)CCN(CC#Cc2ccccc2)CC1` [Example 21-25, 1-[4-(cyanomethyl)-1-(3-phenylprop-2-yn-1-yl)piperidin-4-yl]-3-(phenylamino)-1H-pyrazole-4-carboxamide], in that order: 83 nM and 747 nM.
Regarding `N#CCC1(n2cc(C(N)=O)c(Nc3ccc(F)cc3)n2)CCN(C(=O)OCCC(F)(F)F)CC1` [Example 30-45, 3,3,3-Trifluoropropyl 4-{4-carbamoyl-3-[(4-fluorophenyl)amino]-1H-pyrazol-1-yl}-4-(cyanomethyl)piperidine-1-carboxylate], the IC50 at JAK1 worked out at 3 nM; against JAK2 it was 97 nM.
As for `COc1ccc(C(=O)N2CCC(CC#N)(n3cc(C(N)=O)c(Nc4ccccc4)n3)CC2)cc1OC` [Example 34-27, 1-{4-(cyanomethyl)-l-[(3,4-dimethoxyphenyl)carbonyl]piperidin-4-yl}-3-(phenylamino)-1H-pyrazole-4-carboxamide], the IC50 came out at 32 nM at JAK1 and 448 nM against JAK2.
In the same order, the values of `N#CCC1(n2cc(C(N)=O)c(Nc3ccc(F)cc3)n2)CCC(N2CCC2)CC1` (stereo not drawn) [Example 40-80, Cis or trans 1-[4-azetidin-1-yl-1-(cyanomethyl)cyclohexyl]-3-[(4-fluorophenyl)amino]-1H-pyrazole-4-carboxamide] are 14 nM and 325 nM.
Regarding `N#CCC1(n2cc(C(N)=O)c(Nc3ccc(F)cc3)n2)CCC(NCc2ccccc2)CC1` (stereo not drawn) [Example 40-92, Cis or trans 1-[4-(benzylamino)-1-(cyanomethyl)cyclohexyl]-3-[(4-fluorophenyl)amino]-1H-pyrazole-4-carboxamide], the IC50 on JAK1 turned out to be 0.04 nM; at JAK2, 0.2 nM.
In the same order, the values of `CN1CCN(c2ccc(C(=O)N3CCC(CC#N)(n4cc(C(N)=O)c(Nc5ccccc5)n4)CC3)cc2)CC1` [Example 34-34, 1-[4-(cyanomethyl)-1-{[4-(4-methylpiperazin-1-yl)phenyl]carbonyl}piperidin-4-yl] 3-(phenylamino)-1H-pyrazole-4-carboxamide] are 60 nM and 830 nM.
For `N#CC[C@@]1(n2cc(C(N)=O)c(Nc3ccnc(F)c3)n2)CCN(C(=O)OCC(F)F)C[C@@H]1F` [Example 46], the values for the IC50 on JAK1 and against JAK2 were 0.03 nM and 0.1 nM, respectively.
For `COC(=O)c1cccc(N2CCC(CC#N)(n3cc(C(N)=O)c(Nc4ccc(F)cc4)n3)CC2)n1` [Example 3-35, methyl 6-[4-{4-carbamoyl-3-[(4-fluorophenyl)amino]-1H-pyrazol-1-yl}-4-(cyanomethyl)piperidin-1-yl]pyridine-2-carboxylate], in that order: 19 nM and 280 nM.
In the same order, the values of `N#CCC1(n2cc(C(N)=O)c(Nc3ccccc3)n2)CN(C(=O)OC2CCCC2)C1` [Example 30-52, cyclopentyl 3-[4-carbamoyl-3-(phenylamino)-1H-pyrazol-1-yl]-3-(cyanomethyl)azetidine-1-carboxylate] are 3 nM and 76 nM.
In the same order, the values of `CC(C(=O)N1CCC(CC#N)(n2cc(C(N)=O)c(Nc3ccnc(F)c3)n2)CC1)C(F)(F)F` (centres unmarked) [Example 34-48, 1-[4-(cyanomethyl)-1-(3,3,3-trifluoro-2-methylpropanoyl)piperidin-4-yl]-3-[(2-fIuoropyridin-4-yl)amino]-1H-pyrazole-4-carboxamide] are 0.3 nM and 13 nM.
In the case of `N#CCC1(n2cc(C(N)=O)c(Nc3ccnc(F)c3)n2)CCC(Nc2ccc(F)cc2F)CC1` (stereo not drawn) [Example 40-33, Cis or trans 1-{1-(cyanomethyl)-4-[(2,4-difluorophenyl)amino]cyclohexyl}-3-[(2-fluoropyridin-4-yl)amino]-1H-pyrazole-4-carboxamide], the IC50 on JAK1 stood at 0.03 nM; against JAK2, 0.8 nM.
For `CC(C)(C)OC(=O)N1CCC(CC#N)(n2cc(C(N)=O)c(Nc3ccnc(Cl)c3)n2)CC1` [Example 9-29, tert-butyl 4-{4-carbamoyl-3-[(2-chloropyridin-4-yl)amino]-1H-pyrazol-1-yl}-4-(cyanomethyl)piperidine-1-carboxylate], in that order: 0.1 nM and 3 nM.

For orientation: IC50 means the concentration at which inhibition is half-maximal.

The values above are taken from patent publication US9328099B2, “Cyanomethylpyrazole carboxamides as janus kinase inhibitors” (Merck Sharp & Dohme Corp., priority 2011, dated 2016).
